In US12258337B2, “Bicyclic CX3CR1 receptor agonists” (Board of Regents, The University of Texas System, priority 2019, dated 2025):

B1: fractalkine: recombinant human fractalkine (CX3CL1), large membrane-anchored or secreted cytokine, ligand of CX3CR1 (protein, UniProt P78423 25-397, looked up)
Fractalkine: QHHGVTKCNITCSKMTSKIPVALLIHYQQNQASCGKRAIILETRQHRLFCADPKEQWVKDAMQHLDRQAAALTRNGGTFEKQIGEVKPRTTPAAGGMDESVVLEPEATGESSSLEPTPSSQEAQRALGTSPELPTGVTGSSGTRLPPTPKAQDGGPVGTELFRVPPVSTAATWQSSAPHQPGPSLWAEAKTSEAPSTQDPSTQASTASSPAPEENAPSEGQRVWGQGQSPRPENSLEREEMGPVPAHTDAFQDWGPGSMAHVSVVPVSSEGTPSREPVASGSWTPKAEEPIHATMDPQRLGVLITPVPDAQAATRRQAVGLLAFLGLLFCLGVAMFTYQSLQGCPRKMAGEMAEGLRYIPRSCGSNSYVLVPV

Legend:
Assay type in all cases: cell-based
rCX3CR1 = molecular target: T1, rCX3CR1 (Rattus norvegicus, UniProt P35411); test: Ga16 assay, CX3CR1 agonism, Ca2+ sensitive photo-protein readout (FLIPRTETRA); details: rat CX3CR1 cell line
T1 construct: expressed in transfected cells; stably expresses a Ca2+ sensitive photo-protein
T1 sequence (P35411 1-354): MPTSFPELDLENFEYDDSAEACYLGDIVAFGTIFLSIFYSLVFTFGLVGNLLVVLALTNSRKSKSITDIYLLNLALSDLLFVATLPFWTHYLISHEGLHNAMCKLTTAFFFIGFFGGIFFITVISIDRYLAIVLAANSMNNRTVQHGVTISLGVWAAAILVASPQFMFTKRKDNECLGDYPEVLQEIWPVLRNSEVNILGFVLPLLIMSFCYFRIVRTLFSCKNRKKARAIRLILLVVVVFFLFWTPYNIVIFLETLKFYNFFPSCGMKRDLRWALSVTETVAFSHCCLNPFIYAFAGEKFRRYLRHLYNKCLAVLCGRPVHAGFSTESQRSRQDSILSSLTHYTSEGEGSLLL
Summary of the method: (§1)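 Cells expressing human, mouse or rat CX3CR1 with a stably expressed Ca2+-sensitive photoprotein were loaded with 10 μM coelenterazine in tyrode buffer pH 7.4 for 3 h at room temperature. Agonist-mode luminescence kinetics were recorded for 90 s after compound injection on FLIPRTETRA. Dose-response runs were done in quadruplicate, with fractalkine as the reference agonist.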

mCX3CR1 = molecular target: T2, mCX3CR1 (Mus musculus, UniProt Q9Z0D9); test: as above; details: mouse CX3CR1 cell line
T2 construct: expressed in transfected cells; stably expresses a Ca2+ sensitive photo-protein
T2 sequence (Q9Z0D9 1-354): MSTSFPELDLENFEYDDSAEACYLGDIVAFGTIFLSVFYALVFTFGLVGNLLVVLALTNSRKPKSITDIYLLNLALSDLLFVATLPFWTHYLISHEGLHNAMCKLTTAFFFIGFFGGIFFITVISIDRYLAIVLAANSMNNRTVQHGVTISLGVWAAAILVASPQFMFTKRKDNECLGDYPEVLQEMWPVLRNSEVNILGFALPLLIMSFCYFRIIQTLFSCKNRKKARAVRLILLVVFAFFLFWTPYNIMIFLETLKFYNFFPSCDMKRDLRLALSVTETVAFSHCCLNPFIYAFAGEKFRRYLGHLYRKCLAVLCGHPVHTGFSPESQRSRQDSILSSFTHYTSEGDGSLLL
Summary of the method: as §1

hCX3CR1 [1] = molecular target: T3, hCX3CR1 (Homo sapiens, UniProt P49238); test: ChAMPion assay (CHO ChAMPion/CX3CR1 K1.6, cAMP/CNG channel, photoprotein luminescence); parameters: expressed in transfected cells; stably expresses a Ca2+ sensitive photo-protein; details: ChAMPion assay, CHO ChAMPion/CX3CR1 K1.6, Forskolin 3 μM; read-out: hCX3CR1 agonism EC50
T3 sequence (P49238 1-355): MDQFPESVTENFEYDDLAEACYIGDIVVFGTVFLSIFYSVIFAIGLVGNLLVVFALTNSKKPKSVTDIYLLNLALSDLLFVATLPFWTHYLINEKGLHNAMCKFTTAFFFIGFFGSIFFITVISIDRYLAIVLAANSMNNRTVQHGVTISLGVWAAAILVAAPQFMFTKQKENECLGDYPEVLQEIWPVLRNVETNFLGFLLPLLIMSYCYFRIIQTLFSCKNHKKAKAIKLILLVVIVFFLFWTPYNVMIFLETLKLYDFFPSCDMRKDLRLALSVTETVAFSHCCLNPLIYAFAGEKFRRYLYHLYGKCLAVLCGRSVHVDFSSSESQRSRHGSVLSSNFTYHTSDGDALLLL
Protocol: Buffers and reagents. PBS (D-PBS without calcium and magnesium; EuroClone); Trypsin (Trypsin 0.05%, EDTA 0.02% in PBS; EuroClone); DMSO (Sigma); Tyrode buffer Ca^2+ free: in-house solution (130 mM NaCl, 5 mM KCl, 1 mM MgCl^2, 5 mM NaHCO3, 20 mM HEPES (pH 7.4); sterile filtered and autoclaved); Tyrode buffer 10 mM Ca^2+: in-house solution (130 mM NaCl, 5 mM KCl, 10 mM CaCl2), 1 mM MgCl2, 5 mM NaHCO3, 20 mM HEPES, in water at pH 7.4, sterile filtered); Coelenterazine, native (Biosynth); stock 10 mM; Agonist: Recombinant Human Fractalkine (CX3CL1) (PeproTech); stock: 10 μM in standard Tyrode buffer/BSA 01%; stored at −20° C.
Cell line. The final clone for the hCX3CR1 assay was CHO ChAMPion/CX3CR1 K1.6. ChAMPion technology is based on the co-expression of a Ca^2+ sensitive photoprotein and of a cyclic nucleotide-gated (CNG) channel acting as a cAMP biosensor in a CHO-K1 cell line. CNG channels are non-selective ligand gated cation channels that can be opened by the direct interaction with either cAMP or cGMP, at the intracellular C-terminus site of the channel. Channel opening allows the flux of extracellular calcium into the cell cytoplasm and its transient elevation can be recorded by means of several different calcium indicators. In the chAMPion system, the CNG channel has been modified to display sensitivity to cAMP levels in the physiological range. In addition the calcium influx through the opened channel is immediately detected by the recording of the photoprotein-emitted flash type luminescence signal.
The chAMPion cell line system can monitor the activation of transfected Gαi-coupled receptors, which elicit changes in 3,‘5’-adenosine cyclic monophosphate (cAMP) levels, which in turn is responsible for CNG opening and consequent Ca^2+ influx.
Assay protocol. Experiments were performed in 384 MTP format. Cells were seeded at 10,000 cells/well in 25 μL/well complete growth medium without selection antibiotics in 384-well plates. Twenty-four hours later, cells were assayed for the response to various compounds using the Ca^2+ sensitive photo-protein stably expressed in the cells as readout.
The experiment was performed in a 384-well format according to the following procedure: • 24h after seeding, pre-incubate the cells at room temperature for 1 hour. • Then remove the culture medium. • Load cells with 20 μL/well of Ca^2+ free tyrode buffer+ceolenterazine 5 μM. • Incubate cell plates for 4 hours at RT. • 10 μl/well of 3× concentrated compounds in Ca^2+ free tyrode buffer+Forskolin 9 μM (final Forskolin concentration=3 μM) are applied to the cells (at 10 μl/s). Ten minutes later a second injection is performed: 10 μl/well of Ca^2+ free tyrode buffer+BSA 0.04% (final BSA concentration=0.01%). Twenty minutes later a third injection is performed: 20 μl/well of 10 mM Ca^2+ tyrode buffer (final Ca^2+ concentration was 3.3 mM) and luminescence is recorded for 90 seconds.
Data from FLIPRTETRA measurements are analyzed with the Genedata Screener© software.

hCX3CR1 [2] = molecular target: T3, hCX3CR1; test: Ga16 assay, CX3CR1 agonism, Ca2+ sensitive photo-protein readout (FLIPRTETRA); parameters: expressed in transfected cells; stably expresses a Ca2+ sensitive photo-protein; details: human CX3CR1 cell line
Summary of the method: as §1

primary human monocytes = test: Chemotaxis assay, transwell migration of primary human monocytes; details: 4 hours, CellTiter-Glo, FIG. 2
Protocol: Primary Human Monocytes Migrate Along a Chemotactic Gradient towards CX3CR1 Agonists
The chemotaxis assay assesses the CX3CR1-dependent migration of primary human monocytes towards fractalkine and active CX3CR1 agonists. To determine the migration index, monocytes were positively selected from freshly isolated human PBMCs and seeded at 50,000 cells per insert, on the upper chamber of a transwell plate with a pore size of 5 μm. […] Monocytes were allowed to migrate for 4 hours, and subsequently detected in the lower chamber with the CellTiter-Glo Assay, which measures metabolically active cells.

Molecule | EC50 (rCX3CR1) | EC50 (mCX3CR1) | EC50 (hCX3CR1 [1]) | EC50 (hCX3CR1 [2]) | migration of primary human monocytes towards substance (chemotaxis) (primary human monocytes)
CN(C)CC(C)(C)CN(C)C(=O)c1cc2c(s1)CCCCCC2 [Example 7, N-[3-(dimethylamino)-2,2-dimethylpropyl]-N-methyl-4,5,6,7,8,9-hexahydrocycloocta[b]thiophene-2-carboxamide] | 44.5 µM | 26.1 µM | 9.9 µM | 15.7 µM | –
CC(CNC(=O)c1cc2c(s1)CCCCCC2)CN(C)C (stereo not drawn) [Example 3, N-[3-(dimethylamino)-2-methylpropyl]-4,5,6,7,8,9-hexahydrocycloocta[b]thiophene-2-carboxamide] | 77.2 µM | 75.1 µM | 30 µM | 21 µM | –
B1 | – | – | – | – | monocytes migrated towards fractalkine
